The record followed here is US8614238B2, “Cyclopentanecarboxamide derivatives, medicaments containing such compounds and their use” (Boehringer Ingelheim International GmbH, priority 2009, dated 2013).

One series deals with sebaceous glands. Nature of the series: In vivo activity on sebaceous glands in rats. The arrangement: species or system Wistar rats. As for the experimental part: In vivo activity of the FAS inhibitors on sebaceous glands is determined as exemplified with the following experiment: Female Wistar rats [Crl:Wi(Han); Charles River, Germany] weighing 200-240 g are conventionally housed in Makrolon type cages at a constant temperature of 22±3° C., on a 12 h light/dark cycle. Food and water are provided ad libitum. The animals (n=7 per group) are orally treated once daily with 3, 10 and 30 mg/kg of compound 1.2 in a suspension with 0.5% Natrosol for seven days. All experimental procedures are conducted according to the German Animal Protection Law. Beginning with day 4 of treatment, at the highest dose effects on skin and coat of the animals could be detected. […] With longer treatment alopecia and cutaneous lesions also developed at the skin of the back. At day seven the animals are euthanized and representative tissue samples of the eye lid, muzzle and back skin are collected into 4% formaldehyde solution for microscopic examination. After trimming, the fixed tissues are processed, embedded in paraffin, sectioned at a thickness of approximately 4 μm and stained with hematoxylin-eosin (H&E). […] This lesion is sometimes accompanied by a slight inflammatory reaction.

The next series relates to N-42 cells. Nature of the series: 14C-acetate incorporation in N-42 cells. Type of series: cell-based. The following applies: compound at 10 μM. As for the experimental part: ^14C-Acetat Incorporation in N-42 Cells
30000 cells (N-42), in 24 well plates are incubated with the compound dissolved in 500 μL Krebs-Ringer-buffer for 60 min at 37° C., then incubated with 5 μL 1:10 14C-Acetate dilution (1 000 000 dpm) for 4 hours at 37° C. incubation, then washed with 500 μl PBS. 500 μL chloroform/methanol mix 1:1 and 175 μL sodium hydroxide solution was given in each well. The upper fraction is taken away and the lower fraction is vaporized. 50 μL chloroform/methanol mix 1:1 is again given in every well. 10 μL each are taken and given to scintillation vials with 4 mL Ultima Gold. Each vial is measured for 1 minute in a β-Counter.
Cerulenin, a literature known FAS inhibitor is used to validate the assay.

Series [1] concerns the target T1, Fatty Acid Synthase (FAS) (Homo sapiens, UniProt P49327).
T1 construct: The FAS enzyme is prepared from HeLa cells; endogenous in cells; host or cells: HeLa cells
Nature of the series: Human FAS Enzyme Assay. Type of series: biochemical. The following applies: FAS enzyme prepared from HeLa cells; NADPH consumption; read-out: IC50 (potency range). The source says: Fatty acid synthase is an enzyme complex that harbours seven enzymatic activities catalysing the reductive synthesis of long chain fatty acids from acetyl CoA and malonyl CoA to palmitate. When acetyl CoA and malonyl CoA are forming palmitate NADPH is consumed forming NADP. Since NADPH is fluorescent but not NADP the reaction can be measured by analysing the decrease in fluorescence.
Acetyl coenzyme A (cat.-no. A-2181) and malonyl coenzyme A (cat.-no. M-4263) are purchased from Sigma. NADPH (cat.-no. 30316) is purchased from Serva. The FAS enzyme is prepared from HeLa cells. All other material is of highest grade commercially available.
In the plates, 10 μl test compound in distilled water/DMSO (final concentration 0.1% DMSO) are mixed with 35 μl of a mixture of NADPH and acetyl CoA in phosphate buffer (f.c. 326 μM and 60 μM, respectively), and 45 μl FAS enzyme diluted in enzyme buffer. The plates are incubated for 60 minutes at 37° C. The reaction is then started by the addition of 10 μl malonyl CoA dissolved in water (200 μM). The decrease of the optical density in the wells is determined at 37° C. at a wavelength of 340 nm over 10 minutes. From these kinetic data, the slope (i.e. Vmax) is calculated and used for the calculation.
20 mM KH2PO4/K2HPO4, 1 mM EDTA, 1 mM DTT, 5% glycerol, pH 7.4
Each assay 96 well microtiter plate contains wells with vehicle controls instead of compound (1% DMSO in water) as reference for non-inhibited enzyme activity and wells without malonyl CoA as controls for non-specific NADPH degradation. The analysis of the data is performed by the calculation of the OD decrease in the presence of the test compound compared to the OD decrease of the test control wells after subtraction of the non-specific background without the malonyl CoA substrate (slope(sample)-slope(sample w/o malonyl CoA). An inhibitor of the FAS enzyme will give values between Control values (complete reaction without substance) and complete inhibition. Reported values will include: IC50; Top(Control: nmol NADPH oxidized/min/mg); Bottom (MaxInh: nmol NADPH oxidized/min/mg); RATIO (log(IC50 substance/IC50 control inhibitor)).

The mark [2] stands for this setting: female Wistar rats, highest dose (30 mg/kg orally once daily), beginning with day 4 of treatment.

Usually IC50 stands for the concentration needed to halve the response being measured.

T1 sequence (P49327 whole entry): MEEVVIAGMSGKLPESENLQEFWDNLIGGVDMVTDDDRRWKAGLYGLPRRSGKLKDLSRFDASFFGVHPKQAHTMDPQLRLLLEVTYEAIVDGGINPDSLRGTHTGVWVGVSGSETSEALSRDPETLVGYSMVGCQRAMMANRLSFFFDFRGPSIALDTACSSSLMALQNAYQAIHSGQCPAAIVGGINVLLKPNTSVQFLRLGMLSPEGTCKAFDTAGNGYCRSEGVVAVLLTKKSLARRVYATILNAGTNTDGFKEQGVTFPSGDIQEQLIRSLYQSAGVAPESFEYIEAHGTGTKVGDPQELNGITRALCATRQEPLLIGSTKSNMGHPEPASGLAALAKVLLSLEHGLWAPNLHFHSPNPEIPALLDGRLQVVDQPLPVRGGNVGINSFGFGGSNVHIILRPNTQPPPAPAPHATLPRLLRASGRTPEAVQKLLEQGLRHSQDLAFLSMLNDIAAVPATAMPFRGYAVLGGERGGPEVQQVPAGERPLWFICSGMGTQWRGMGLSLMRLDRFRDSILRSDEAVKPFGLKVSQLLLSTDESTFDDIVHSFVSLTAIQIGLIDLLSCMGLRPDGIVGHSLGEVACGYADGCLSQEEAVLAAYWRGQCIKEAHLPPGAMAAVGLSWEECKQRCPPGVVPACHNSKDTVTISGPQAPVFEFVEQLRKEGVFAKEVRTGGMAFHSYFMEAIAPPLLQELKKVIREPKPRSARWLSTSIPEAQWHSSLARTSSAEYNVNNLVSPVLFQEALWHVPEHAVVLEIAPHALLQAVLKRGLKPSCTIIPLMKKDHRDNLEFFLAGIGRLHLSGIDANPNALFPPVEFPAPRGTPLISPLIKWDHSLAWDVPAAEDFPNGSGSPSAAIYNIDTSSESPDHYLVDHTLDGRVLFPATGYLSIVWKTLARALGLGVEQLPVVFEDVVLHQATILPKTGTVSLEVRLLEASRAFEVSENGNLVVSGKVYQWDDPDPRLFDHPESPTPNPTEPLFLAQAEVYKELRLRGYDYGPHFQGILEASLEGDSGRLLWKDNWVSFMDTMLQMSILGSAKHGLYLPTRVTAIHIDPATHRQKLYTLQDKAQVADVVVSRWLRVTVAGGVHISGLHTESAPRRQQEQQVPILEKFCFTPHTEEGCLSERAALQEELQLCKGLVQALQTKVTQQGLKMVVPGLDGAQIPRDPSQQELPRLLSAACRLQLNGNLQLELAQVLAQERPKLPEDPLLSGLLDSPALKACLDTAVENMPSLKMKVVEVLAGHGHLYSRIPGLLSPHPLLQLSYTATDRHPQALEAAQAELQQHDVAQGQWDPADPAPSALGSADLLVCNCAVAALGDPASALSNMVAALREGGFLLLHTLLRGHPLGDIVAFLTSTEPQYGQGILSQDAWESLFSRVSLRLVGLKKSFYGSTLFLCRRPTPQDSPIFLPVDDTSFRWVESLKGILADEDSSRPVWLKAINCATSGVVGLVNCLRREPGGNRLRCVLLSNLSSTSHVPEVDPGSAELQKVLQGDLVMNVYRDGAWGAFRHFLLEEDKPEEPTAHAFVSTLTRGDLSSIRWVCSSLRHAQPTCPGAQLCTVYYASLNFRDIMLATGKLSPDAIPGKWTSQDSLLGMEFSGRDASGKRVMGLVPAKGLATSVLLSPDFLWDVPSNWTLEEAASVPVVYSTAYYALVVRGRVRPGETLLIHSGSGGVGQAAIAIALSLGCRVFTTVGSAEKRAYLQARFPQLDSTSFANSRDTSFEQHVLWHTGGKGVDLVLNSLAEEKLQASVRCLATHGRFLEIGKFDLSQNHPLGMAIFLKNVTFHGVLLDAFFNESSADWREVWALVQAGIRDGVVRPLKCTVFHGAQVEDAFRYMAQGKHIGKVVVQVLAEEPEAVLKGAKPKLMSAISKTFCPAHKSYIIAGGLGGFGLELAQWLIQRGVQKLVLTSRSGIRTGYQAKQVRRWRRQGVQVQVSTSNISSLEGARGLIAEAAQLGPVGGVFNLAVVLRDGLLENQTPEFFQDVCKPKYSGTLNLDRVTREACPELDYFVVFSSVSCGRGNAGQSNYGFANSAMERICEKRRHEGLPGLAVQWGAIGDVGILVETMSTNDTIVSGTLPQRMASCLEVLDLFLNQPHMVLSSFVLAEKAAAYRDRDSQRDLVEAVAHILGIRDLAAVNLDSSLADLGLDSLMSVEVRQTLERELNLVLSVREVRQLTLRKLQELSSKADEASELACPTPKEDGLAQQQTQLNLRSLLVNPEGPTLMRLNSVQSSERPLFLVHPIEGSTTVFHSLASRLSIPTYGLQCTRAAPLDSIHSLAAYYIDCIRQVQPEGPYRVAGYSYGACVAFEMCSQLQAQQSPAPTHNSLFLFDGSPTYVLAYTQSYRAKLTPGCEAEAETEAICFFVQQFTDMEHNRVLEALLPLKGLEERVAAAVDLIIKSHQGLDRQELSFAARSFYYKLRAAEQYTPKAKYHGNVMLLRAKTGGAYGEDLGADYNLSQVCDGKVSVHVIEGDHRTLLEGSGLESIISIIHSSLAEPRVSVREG

As for `CCC(=O)N[C@H]1CC[C@@H](C(=O)N(C)c2ccc(-c3nc4ccccc4o3)cc2)C1` [Example 1.2, (1R,3S)-3-Propionylamino-cyclopentanecarboxylic acid N-(4-benzooxazol-2-yl-phenyl)-N-methyl-amide], the “microscopic examination of skin (eye lid, muzzle, back skin)” value in the series with sebaceous glands (female Wistar rats, 3, 10 and 30 mg/kg orally once daily for seven days, all dose groups) was “treatment-related diffuse atrophy of sebaceous glands of the skin”. For the same molecule, in the series on sebaceous glands (setting [2]), the “effects on skin and coat of the animals” value is listed as “progressive cranial alopecia”; the “skin of the mouth and eye lid” value was “reddened and swollen”. Also, the “% control 14C acetate incorporation” value in the series on N-42 cells was found to be 64.1 % control. Moreover, in series [1], the IC50 is at most 500 nM.
